Data published in patent US20110178062A1, “INDOLE AND BENZOTHIOPHENE COMPOUNDS AS MODULATORS OF THE HISTAMINE H3 RECEPTOR” (priority 2007, published 2011).

Target: T1, cloned human H3 receptors, stably expressed in SK-N-MC cells (Homo sapiens, UniProt Q9Y5N1)
T1 construct: expressed in transfected cells; host or cells: SK-N-MC cells
Assay: H3 Receptor Binding (Human)
Details: average of the results obtained
Experimental: Binding of compounds to the cloned human H3 receptors, stably expressed in SK-N-MC cells, was performed as described by Barbier, A. J. et al. (Br. J. Pharmacol. 2004, 143(5), 649-661). Data for compounds tested in this assay are presented in Table 1 as an average of the results obtained.

T1 sequence (Q9Y5N1 whole entry): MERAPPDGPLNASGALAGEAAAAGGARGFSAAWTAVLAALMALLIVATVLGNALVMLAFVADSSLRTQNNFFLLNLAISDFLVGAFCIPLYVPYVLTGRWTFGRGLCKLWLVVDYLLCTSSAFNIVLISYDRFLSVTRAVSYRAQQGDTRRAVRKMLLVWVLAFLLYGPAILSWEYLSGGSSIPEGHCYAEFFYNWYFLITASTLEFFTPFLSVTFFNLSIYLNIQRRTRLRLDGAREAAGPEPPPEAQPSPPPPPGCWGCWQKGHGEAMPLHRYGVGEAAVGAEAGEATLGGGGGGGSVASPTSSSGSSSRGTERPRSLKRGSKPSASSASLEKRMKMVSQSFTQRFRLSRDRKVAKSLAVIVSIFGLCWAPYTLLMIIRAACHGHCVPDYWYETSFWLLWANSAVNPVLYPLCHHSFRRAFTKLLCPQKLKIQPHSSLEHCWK

Row | SMILES | Ki
1 | O=C(c1ccc2c(CN3CCCN(C4CCC4)CC3)c[nH]c2c1)N1CCSCC1 [Example 71, [3-(4-Cyclobutyl-[1,4]diazepan-1-ylmethyl)-1H-indol-6-yl]-thiomorpholin-4-yl-methanone] | 22 nM
2 | CC(C)N1CCCN(Cc2c[nH]c3cc(C(=O)N4CCC(CO)CC4)ccc23)CC1 [Example 84, (4-Hydroxymethyl-piperidin-1-yl)-[3-(4-isopropyl-[1,4]diazepan-1-ylmethyl)-1H-indol-6-yl]-methanone] | 87 nM
3 | O=C(c1ccc2c(CN3CCN(C4CCC4)CC3)c[nH]c2c1)N1CCOCC1 [Example 75, [3-(4-Cyclobutyl-piperazin-1-ylmethyl)-1H-indol-6-yl]-morpholin-4-yl-methanone] | 43 nM
4 | CC(C)N1CCN(C(=O)c2ccc3[nH]cc(CN4CCOCC4)c3c2)CC1 [Example 35, (4-Isopropyl-piperazin-1-yl)-(3-morpholin-4-ylmethyl-1H-indol-5-yl)-methanone] | 265 nM
5 | CC(C)N1CCN(Cc2c[nH]c3cc(C(=O)N4CCOCC4)ccc23)CC1 [Example 76, [3-(4-Isopropyl-piperazin-1-ylmethyl)-1H-indol-6-yl]-morpholin-4-yl-methanone] | 54 nM
6 | O=C(c1ccc2c(CN3CCC(N4CCCCC4)CC3)c[nH]c2c1)N1CCC(CO)CC1 [Example 79, (3-[1,4′]Bipiperidinyl-1′-ylmethyl-1H-indol-6-yl)-(4-hydroxymethyl-piperidin-1-yl)-methanone] | 62 nM
7 | CC(C)N1CCN(C(=O)c2ccc3c(CN4CCN(CCc5ccccc5)CC4)c[nH]c3c2)CC1 [Example 56, (4-Isopropyl-piperazin-1-yl)-[3-(4-phenethyl-piperazin-1-ylmethyl)-1H-indol-6-yl]-methanone] | 2 nM
8 | CC(C)N1CCN(C(=O)c2ccc3c(CN4CCN(C(=O)N5CCOCC5)CC4)c[nH]c3c2)CC1 [Example 61, (4-Isopropyl-piperazin-1-yl)-{3-[4-(morpholine-4-carbonyl)-piperazin-1-ylmethyl]-1H-indol-6-yl}-methanone] | 3 nM
9 | O=C(c1ccc2c(CN3CCN(C4CCC4)CC3)c[nH]c2c1)N1CCSCC1 [Example 70, [3-(4-Cyclobutyl-piperazin-1-ylmethyl)-1H-indol-6-yl]-thiomorpholin-4-yl-methanone] | 27 nM
10 | O=C(c1ccc2c(CN3CCN(C4CCC4)CC3)c[nH]c2c1)N1CCC(Cc2ccccc2)CC1 [Example 107, (4-Benzyl-piperidin-1-yl)-[3-(4-cyclobutyl-piperazin-1-ylmethyl)-1H-indol-6-yl]-methanone] | 12 nM
11 | CC(C)N1CCCN(Cc2c[nH]c3cc(C(=O)N4CCOCC4)ccc23)CC1 [Example 78, [3-(4-Isopropyl-[1,4]diazepan-1-ylmethyl)-1H-indol-6-yl]-morpholin-4-yl-methanone] | 42 nM
12 | O=C(c1ccc2c(CN3CCCN(C4CCC4)CC3)c[nH]c2c1)N1CCOCC1 [Example 77, [3-(4-Cyclobutyl-[1,4]diazepan-1-ylmethyl)-1H-indol-6-yl]-morpholin-4-yl-methanone] | 38 nM
13 | CC(C)N1CCN(C(=O)c2ccc3scc(C(=O)N4CCCCC4)c3c2)CC1 [Example 104, [5-(4-Isopropyl-piperazine-1-carbonyl)-benzo[b]thiophen-3-yl]-piperidin-1-yl-methanone] | 772 nM
14 | CC(C)N1CCN(C(=O)c2ccc3c(CN4CCN(c5nccs5)CC4)c[nH]c3c2)CC1 [Example 49, (4-Isopropyl-piperazin-1-yl)-[3-(4-thiazol-2-yl-piperazin-1-ylmethyl)-1H-indol-6-yl]-methanone] | 7 nM
15 | O=C(NCc1cccnc1)c1ccc2c(CN3CCCCC3)c[nH]c2c1 [Example 15, 3-Piperidin-1-ylmethyl-1H-indole-6-carboxylic acid (pyridin-3-ylmethyl)-amide] | 117 nM
16 | CC(C)N1CCN(C(=O)c2ccc3c(CN4CCC(Cc5ccccc5)CC4)c[nH]c3c2)CC1 [Example 55, [3-(4-Benzyl-piperidin-1-ylmethyl)-1H-indol-6-yl]-(4-isopropyl-piperazin-1-yl)-methanone] | 1 nM
17 | CN(C)C1CCN(Cc2c[nH]c3cc(C(=O)N4CCSCC4)ccc23)C1 (centres unmarked) [Example 69, [3-(3-Dimethylamino-pyrrolidin-1-ylmethyl)-1H-indol-6-yl]-thiomorpholin-4-yl-methanone] | 19 nM
18 | O=C(c1ccc2c(CN3CCC(N4CCCCC4)CC3)c[nH]c2c1)N1CCOCC1 [Example 73, (3-[1,4′]Bipiperidinyl-1′-ylmethyl-1H-indol-6-yl)-morpholin-4-yl-methanone] | 205 nM
19 | CC(C)N1CCN(C(=O)c2ccc3c(CN4CCN(C(=O)c5ccccc5)CC4)c[nH]c3c2)CC1 [Example 63, [3-(4-Benzoyl-piperazin-1-ylmethyl)-1H-indol-6-yl]-(4-isopropyl-piperazin-1-yl)-methanone] | 1 nM
20 | O=C(c1ccc2c(CN3CCCN(C4CCC4)CC3)c[nH]c2c1)N1CCC(c2ccccc2)CC1 [Example 89, [3-(4-Cyclobutyl-[1,4]diazepan-1-ylmethyl)-1H-indol-6-yl]-(4-phenyl-piperidin-1-yl)-methanone] | 31 nM
21 | O=C(c1ccc2c(CN3CCN(C4CCC4)CC3)c[nH]c2c1)N1CCC(CO)CC1 [Example 81, [3-(4-Cyclobutyl-piperazin-1-ylmethy)l-1H-indol-6-yl]-(4-hydroxymethyl-piperidin-1-yl)-methanone] | 17 nM
22 | CC(C)N1CCN(C(=O)c2ccc3c(CN4CCN(c5ccccn5)CC4)c[nH]c3c2)CC1 [Example 46, (4-Isopropyl-piperazin-1-yl)-[3-(4-pyridin-2-yl-piperazin-1-ylmethyl)-1H-indol-6-yl]-methanone] | 3 nM
23 | CC(C)N1CCN(C(=O)c2ccc3c(CN4CCN(C(c5ccccc5)c5ccccc5)CC4)c[nH]c3c2)CC1 [Example 53, [3-(4-Benzydryl-piperazin-1-ylmethyl)-1H-indol-6-yl]-(4-isopropyl-piperazin-1-yl)-methanone] | 19 nM
24 | O=C(c1ccc2c(CN3CCOCC3)c[nH]c2c1)N1CCC(N2CCCC2=O)CC1 [Example 14, 1-[1-(3-Morpholin-4-ylmethyl-1H-indole-6-carbonyl)-piperidin-4-yl]-pyrrolidin-2-one] | 609 nM
25 | O=C(NCc1ccncc1)c1ccc2c(CN3CCOCC3)c[nH]c2c1 [Example 11, 3-Morpholin-4-ylmethyl-1H-indole-6-carboxylic acid (pyridin-4-ylmethyl)-amide] | 228 nM
26 | CC(C)N1CCN(C(=O)c2ccc3c(CN4CCN(c5ccncc5)CC4)c[nH]c3c2)CC1 [Example 64, (4-Isopropyl-piperazin-1-yl)-[3-(4-pyridin-4-yl-piperazin-1-ylmethyl)-1H-indol-6-yl]-methanone] | 1 nM
27 | O=C(c1ccc2scc(C(=O)N3CCCCC3)c2c1)N1CCN(C2CCC2)CC1 [Example 105, [5-(4-Cyclobutyl-piperazine-1-carbonyl)-benzo[b]thiophen-3-yl]-piperidin-1-yl-methanone] | 215 nM
28 | O=C(c1ccc2c(CN3CCCN(C4CCC4)CC3)c[nH]c2c1)N1CCCCCC1 [Example 98, Azepan-1-yl-[3-(4-cyclobutyl-[1,4]diazepan-1-ylmethyl)-1H-indol-6-yl]-methanone] | 34 nM
29 | O=C(c1ccc2c(CN3CCC(N4CCCCC4)CC3)c[nH]c2c1)N1CCC(Cc2ccccc2)CC1 [Example 106, (4-Benzyl-piperidin-1-yl)-(3-[1,4′]bipiperidinyl-1′-ylmethyl-1H-indol-6-yl)-methanone] | 70 nM
